Measured values taken from article PMC12155096 (International Journal of Molecular Sciences, 2025).
Like-named read-outs stand apart in the source and are kept apart here.

Assays:
human CYP1A2 = molecular target: T1, human CYP1A2 (Homo sapiens, UniProt P05177)
T1 sequence (P05177 1-516): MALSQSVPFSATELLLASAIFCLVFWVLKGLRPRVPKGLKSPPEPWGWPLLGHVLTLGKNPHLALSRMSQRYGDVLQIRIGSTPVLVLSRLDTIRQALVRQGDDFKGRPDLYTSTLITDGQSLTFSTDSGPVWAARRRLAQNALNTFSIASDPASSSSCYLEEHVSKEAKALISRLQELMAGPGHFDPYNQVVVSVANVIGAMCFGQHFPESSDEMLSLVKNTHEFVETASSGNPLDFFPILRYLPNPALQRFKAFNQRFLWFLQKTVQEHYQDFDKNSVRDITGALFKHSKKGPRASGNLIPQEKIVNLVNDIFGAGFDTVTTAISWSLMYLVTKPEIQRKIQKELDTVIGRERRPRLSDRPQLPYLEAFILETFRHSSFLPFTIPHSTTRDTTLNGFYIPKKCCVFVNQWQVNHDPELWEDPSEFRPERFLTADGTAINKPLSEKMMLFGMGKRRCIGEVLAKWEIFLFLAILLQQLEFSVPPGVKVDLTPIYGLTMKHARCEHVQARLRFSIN

[1] = molecular target: Photinus pyralis (firefly) luciferase (Photinus pyralis, UniProt P08659); assay: biochemical; format: biochemical
Sequence of Photinus pyralis (firefly) luciferase (P08659 whole entry): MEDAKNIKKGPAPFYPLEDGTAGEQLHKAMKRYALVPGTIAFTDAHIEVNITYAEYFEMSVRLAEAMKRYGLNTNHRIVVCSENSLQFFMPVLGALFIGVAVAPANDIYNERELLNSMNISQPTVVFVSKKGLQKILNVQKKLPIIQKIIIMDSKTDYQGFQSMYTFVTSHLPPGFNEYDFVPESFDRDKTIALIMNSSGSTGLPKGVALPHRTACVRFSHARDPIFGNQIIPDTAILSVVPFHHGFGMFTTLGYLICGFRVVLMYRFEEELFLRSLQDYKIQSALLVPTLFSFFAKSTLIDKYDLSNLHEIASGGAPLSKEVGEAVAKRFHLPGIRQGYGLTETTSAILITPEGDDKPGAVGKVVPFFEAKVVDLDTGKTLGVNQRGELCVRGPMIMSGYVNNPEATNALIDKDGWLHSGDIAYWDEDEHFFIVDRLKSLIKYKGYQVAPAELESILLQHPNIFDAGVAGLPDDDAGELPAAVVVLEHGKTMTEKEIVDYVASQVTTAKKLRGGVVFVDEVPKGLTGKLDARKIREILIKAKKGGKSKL

human CYP2C9 = human CYP2C9 (Homo sapiens, UniProt P11712)
Sequence of human CYP2C9 (P11712 whole entry): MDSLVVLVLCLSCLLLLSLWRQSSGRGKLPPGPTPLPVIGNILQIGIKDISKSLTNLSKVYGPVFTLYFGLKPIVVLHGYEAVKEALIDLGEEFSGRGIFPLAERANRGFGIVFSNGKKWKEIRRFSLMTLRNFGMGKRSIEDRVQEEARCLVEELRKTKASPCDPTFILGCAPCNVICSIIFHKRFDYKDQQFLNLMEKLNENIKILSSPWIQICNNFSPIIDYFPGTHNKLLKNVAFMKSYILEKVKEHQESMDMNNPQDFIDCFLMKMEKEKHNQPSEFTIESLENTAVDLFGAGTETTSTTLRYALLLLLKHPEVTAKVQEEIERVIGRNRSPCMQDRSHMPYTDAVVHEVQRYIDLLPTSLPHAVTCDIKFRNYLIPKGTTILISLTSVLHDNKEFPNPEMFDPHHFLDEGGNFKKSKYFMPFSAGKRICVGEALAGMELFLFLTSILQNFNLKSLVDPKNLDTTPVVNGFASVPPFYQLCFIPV

CYP3A4 = CYP3A4 (Homo sapiens, UniProt P08684)
Sequence of CYP3A4 (P08684 whole entry): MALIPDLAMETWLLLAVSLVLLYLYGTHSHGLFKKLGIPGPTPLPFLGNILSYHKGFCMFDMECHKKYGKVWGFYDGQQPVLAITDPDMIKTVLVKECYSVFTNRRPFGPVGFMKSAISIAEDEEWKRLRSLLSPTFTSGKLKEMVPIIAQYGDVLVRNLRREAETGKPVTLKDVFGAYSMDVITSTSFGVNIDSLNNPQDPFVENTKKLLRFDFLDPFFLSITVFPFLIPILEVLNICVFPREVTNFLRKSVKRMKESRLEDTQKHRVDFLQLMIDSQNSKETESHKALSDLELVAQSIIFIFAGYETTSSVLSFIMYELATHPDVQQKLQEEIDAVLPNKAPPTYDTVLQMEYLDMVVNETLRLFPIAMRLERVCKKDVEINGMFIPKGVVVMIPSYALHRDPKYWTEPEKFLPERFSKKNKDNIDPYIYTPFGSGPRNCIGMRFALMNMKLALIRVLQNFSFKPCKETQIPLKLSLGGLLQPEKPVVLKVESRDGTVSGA

human CYP2D6 = human CYP2D6 (Homo sapiens, UniProt P10635)
Sequence of human CYP2D6 (P10635 whole entry): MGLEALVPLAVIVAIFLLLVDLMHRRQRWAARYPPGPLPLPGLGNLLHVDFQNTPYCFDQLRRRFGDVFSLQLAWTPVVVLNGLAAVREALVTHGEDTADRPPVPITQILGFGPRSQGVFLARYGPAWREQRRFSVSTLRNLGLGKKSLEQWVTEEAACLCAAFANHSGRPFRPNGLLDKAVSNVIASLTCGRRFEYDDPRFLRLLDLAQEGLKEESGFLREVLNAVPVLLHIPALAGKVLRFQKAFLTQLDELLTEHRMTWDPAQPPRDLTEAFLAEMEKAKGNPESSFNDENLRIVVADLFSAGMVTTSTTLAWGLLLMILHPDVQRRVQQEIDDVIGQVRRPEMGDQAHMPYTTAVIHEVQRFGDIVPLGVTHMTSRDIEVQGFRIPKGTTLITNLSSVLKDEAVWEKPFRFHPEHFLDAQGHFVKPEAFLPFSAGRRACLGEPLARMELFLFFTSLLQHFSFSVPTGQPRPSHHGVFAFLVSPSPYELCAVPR

human CYP2C19 = human CYP2C19 (Homo sapiens, UniProt P33261)
Sequence of human CYP2C19 (P33261 whole entry): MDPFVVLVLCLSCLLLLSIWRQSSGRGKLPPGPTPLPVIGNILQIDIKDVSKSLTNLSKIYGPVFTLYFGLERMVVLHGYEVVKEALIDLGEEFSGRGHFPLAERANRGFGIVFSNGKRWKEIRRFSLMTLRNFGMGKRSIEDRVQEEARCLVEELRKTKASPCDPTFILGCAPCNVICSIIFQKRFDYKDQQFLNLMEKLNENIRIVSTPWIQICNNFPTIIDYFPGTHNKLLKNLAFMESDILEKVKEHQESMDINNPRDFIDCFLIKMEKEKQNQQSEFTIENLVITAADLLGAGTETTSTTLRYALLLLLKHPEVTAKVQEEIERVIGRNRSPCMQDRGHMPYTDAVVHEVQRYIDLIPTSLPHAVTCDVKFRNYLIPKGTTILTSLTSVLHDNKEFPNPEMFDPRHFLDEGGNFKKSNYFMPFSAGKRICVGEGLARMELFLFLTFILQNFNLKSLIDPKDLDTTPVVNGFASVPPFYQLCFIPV

SMILES	IC50 (CYP3A4) [µM]	IC50 (human CYP1A2) [µM]	Luciferase IC50 (half-maximal inhibitory concentration) [1]	IC50 (human CYP2C9) [µM]	IC50 (human CYP2D6) [µM]	CYP2C9 Efficacy (in parenthesis) (human CYP2C9)	CYP3A4 Efficacy (in parenthesis) (CYP3A4)	CYP2D6 Efficacy (in parenthesis) (human CYP2D6)	CYP2C19 Efficacy (in parenthesis) (human CYP2C19)	IC50 (human CYP2C19) [µM]	also measured
CCCCCCCCCCCCCCCCCC[N+](C)(C)Cc1ccccc1.[Cl-]	45.9										CYP1A2 Efficacy (human CYP1A2): 80.42 ± 0 (-111 ± 16) %; IC50 ([1]; read-out: Luciferase IC50): 87 µM; CYP2C9 Efficacy (human CYP2C9): 38.84 ± 2.53 (-102 ± 5) %; CYP2D6 Efficacy (human CYP2D6): 0.67 ± 0.43 (-99 ± 3) %; CYP2C19 Efficacy (human CYP2C19): 48.63 ± 14.39 (-147 ± 23) %
CCCC[N+](C)(CCCC)CCCC.O=S(=O)([N-]S(=O)(=O)C(F)(F)F)C(F)(F)F	67.4	50.6	Inactive	5.83	0.48						CYP2C19 IC50 (half-maximal inhibitory concentration) (human CYP2C19): Inactive
CCCCCCCCCCCCCC[P+](CCCC)(CCCC)CCCC.CCCCCCCCCCCCc1ccc(S(=O)(=O)[O-])cc1		24.3	Inactive	15.7	0.21	15.74 ± 3.82 (-84 ± 8) %	7.93 ± 2.21 (104 ± 17) %	0.21 ± 0.1 (-107 ± 3) %	21.96 ± 3.74 (-142 ± 38) %	22	CYP1A2 AC50 (half-maximal activity concentration) (human CYP1A2): Inconclusive inhibitor; CYP1A2 Efficacy (in parenthesis) (human CYP1A2): 24.26 ± 16.34 (-39 ± 1) %; CYP2C9 Efficacy (human CYP2C9): 15.74 ± 3.82 (-84 ± 8) %; AC50 (CYP3A4): 7.93 µM; CYP3A4 IC50 (half-maximal inhibitory concentration) (CYP3A4): 7.93 ± 2.21 (104 ± 17) µM; CYP2D6 Efficacy (human CYP2D6): 0.21 ± 0.10 (-107 ± 3) %; CYP2C19 Efficacy (human CYP2C19): 21.96 ± 3.74 (-142 ± 38) %
Cc1cc(CCC(=O)OCCOCCOCCOC(=O)CCc2cc(C)c(O)c(C(C)(C)C)c2)cc(C(C)(C)C)c1O	2.56		Inactive	0.55	9.78	0.55 ± 0.06 (-101 ± 5) %	2.56 ± 0.17 (-86 ± 4) %	9.78 ± 0 (-91 ± 3) %	4.01 ± 1.12 (-130 ± 10) %	4.01	CYP1A2 IC50 (half-maximal inhibitory concentration) (human CYP1A2): Inactive
CCCCCCCCCCCCCC[P+](CCCCCC)(CCCCCC)CCCCCC.O=S(=O)([N-]S(=O)(=O)C(F)(F)F)C(F)(F)F	3.13	37	Inactive	6.41	0.25					43.7	
COC(=O)C1=C(C)NC(C)=C(C(=O)O[C@@H]2CCCN(Cc3ccccc3)C2)[C@@H]1c1cccc([N+](=O)[O-])c1.Cl (racemic) [rac Benidipine hydrochloride]	0.84	25.2	Inactive	0.75	13.6					6.53	
Cl.OC(CNCC(O)C1CCc2cc(F)ccc2O1)C1CCc2cc(F)ccc2O1 (racemic) [rac Nebivolol hydrochloride]			Inactive		0.25					41.3	CYP1A2 IC50 (half-maximal inhibitory concentration) (human CYP1A2): Inactive; CYP2C9 IC50 (half-maximal inhibitory concentration) (human CYP2C9): Inactive; AC50 (CYP3A4): 16.1 µM; CYP3A4 IC50 (half-maximal inhibitory concentration) (CYP3A4): 16.12 ± 1.09 (65 ± 10) µM; CYP2D6 Efficacy (human CYP2D6): 0.25 ± 0.05 (-104 ± 2) %; CYP2C19 Efficacy (human CYP2C19): 41.28 ± 3.36 (-60 ± 3) %
CC(=C(CCOC(=O)C(C)C)SSC(CCOC(=O)C(C)C)=C(C)N(C=O)Cc1cnc(C)nc1N)N(C=O)Cc1cnc(C)nc1N (stereo in doubt) [Bisibutiamine]	0.36		Inactive								CYP1A2 IC50 (half-maximal inhibitory concentration) (human CYP1A2): Inactive; CYP2C9 IC50 (half-maximal inhibitory concentration) (human CYP2C9): Inactive; CYP2D6 IC50 (half-maximal inhibitory concentration) (human CYP2D6): Inactive; CYP2C19 IC50 (half-maximal inhibitory concentration) (human CYP2C19): Inactive
N=C(Nc1ccccc1)Nc1ccccc1 [1,3-Diphenylguanidine]	51.9	30.8		53.1	0.2					45	Luciferase IC50 [1]: Inactive
CC[N+]1(C)CCCC1.[I-] [1-Ethyl-1-methylpyrrolidinium iodide]		75.5			0.01					26.7	Luciferase IC50 [1]: Inactive; CYP2C9 IC50 (human CYP2C9): Inactive; CYP3A4 IC50 (CYP3A4): Inactive
CCCCCCCCCCCCCCCCn1cc[n+](C)c1.[Cl-] [1-Hexadecyl-3-methylimidazolium chloride]	63.6	69.7	Inactive	55.4	0.38	55.36 ± 23.27 (-121 ± 6) %	63.62 ± 15.46 (-70 ± 19) %	0.38 ± 0.13 (-102 ± 3) %	52.99 ± 35.71 (-145 ± 35) %	53	CYP1A2 Efficacy (in parenthesis) (human CYP1A2): 69.7 ± 29.29 (-90 ± 28) %
O=C(Nc1ccccc1SSc1ccccc1NC(=O)c1ccccc1)c1ccccc1 [2,2'-Dibenzoylaminodiphenyl disulfide]	3.23	6.73		0.57		0.57 ± 0.07 (-99 ± 3) %	3.23 ± 1.25 (-75 ± 7) %	37.5 ± 45.35 (15 ± 47) %	3.94 ± 2.15 (-155 ± 9) %	3.94	CYP1A2 Efficacy (in parenthesis) (human CYP1A2): 6.73 ± 1.52 (-88 ± 2) %; Luciferase Efficacy (in parenthesis) [1]: 3.42 ± 1.53 (-57 ± 5) %; IC50 ([1]; read-out: Luciferase IC50 (half-maximal inhibitory concentration)): 3.42 µM; CYP2D6 IC50 (half-maximal inhibitory concentration) (human CYP2D6): 37.5 ± 45.35 (15 ± 47) µM
